How the values were obtained:
[1] = Antitumor activity test, sulfonyl rhodamine B (SRB) method; format: cell-based, human; details: compound concentration 10^−5 M, A-549 cells cultured 72 hours, OD560
Description: (§1) Antitumor activity test: Sulfonyl rhodamine B (SRB) method was used to determine the in vitro anti-tumor activity of A-549 […] cancer cells. A-549 human […] cancer cells in logarithmic growth were inoculated into a 96 well microculture plate with the amount of 90 μL/well. 24 hours later, the solutions respectively containing the compounds 1a, 1b, 1c, 1d, 1e, 1f, 1g, 1h, and 1i of the disclosure were added to the wells with each 10 μL/well, and three wells for each concentration. A cell-free zero adjustment hole was also provided. The concentrations of the compounds 1a, 1b, 1c, 1d, 1e, 1f, 1g, 1h, and 1i in corresponding solution were all 10^−5 M. The tumor cells were cultured at 37° C. under 5% CO2 for 72 hours. The culture medium was discarded, and 100 μL/well of 10% TCA was added to the cells for fixing at 4° C. for 1 hour. The cells were washed three times with distilled water, and dried naturally. 4 mg/mL SRB (Sigma) staining solution of 100 μL/well was added for staining at room temperature for 15 minutes, washed three times with 1% acetic acid aqueous solution, and dried naturally. 100 μL/well of 10 mM Tris base aqueous solution was further added. Then, the optical density (OD560) value was measured using an enzyme-linked immunosorbent assay at a wavelength of 560 nm. The inhibition rate of the tested compounds on tumor cell growth was calculated according to the formula: (control group OD value-administration group OD value)/control group OD value×100%.

[2] = test system: A-549 human breast cancer cells; assay: as above; format: cell-based; details: Homo sapiens, A549, compound concentration 10^−5 M, A-549 cells cultured 72 hours, OD560, read-out: Inhibitory rates on tumor cell growth (%)
Description: as §1

Molecule: COC(=O)CCc1c(C(=O)OC(C)(C)C)[nH]c(C=C2NC(=O)C(CCS(=O)(=O)c3ccc(C)cc3)=C2C)c1C [Compound 1c, 9-tert-butyloxycarbonyl-3,7-dimethyl-8-(2-methoxycarbonylethyl)-2-(2-nenenebap-toluenesulfonylethyl)-dipyrrolomethen-1-one]
- Inhibitory rates on tumor cell growth (%) [1]: 34.4%

Molecule: 3,7-dimethyl-8-(2-ethoxycarbonylethyl) -2-(2-p-toluenesulfoethyl)-dipyrrolidene-1-one [Compound 1g]
- Inhibitory rates on tumor cell growth (%) [1]: 35.6%

Molecule: 9-tert butoxycarbonyl-2,7-dimethyl-8-(2-methoxycarbonylethyl)-3-(2-p-toluenesulfoethyl)-dipyrrolidene-1-one [Compound 1a]
- Inhibitory rates on tumor cell growth (%) [1]: 72.3%

Molecule: 3,7,9-trimethyl-8-(2-methoxycarbonyl ethyl)-2-(2-p-tolylene sulfonyl group ethyl)-dipyrrolidone [Compound 1h]
- Inhibitory rates on tumor cell growth (%) [1]: 11.7%

Molecule: COC(=O)CCc1c(C)[nH]c(/C=C2\NC(=O)C(CC[S+]([O-])c3ccc(C)cc3)=C2C)c1C (stereo not drawn) [Compound 1e, 3,7,9-trimethyl-8-(2-methoxycarbonylethyl)-2-(2-p-tolylenesulfonylgroupethyl)-dipyrrolidone]
- inhibition at 10 µM [2]: 63.4%

Molecule: COC(=O)CCc1c(C)[nH]c(/C=C2\NC(=O)C(CCSc3ccc(C)cc3)=C2C)c1C [Compound 1d, 3,7,9-trimethyl-8-(2-methoxycarbonylethyl) -2-(2-p-toluenesulfoethyl)-dipyrrolidene-1-one]
- inhibition at 10 µM [2]: 37.8%

Molecule: COC(=O)CCc1c(C)[nH]c(C=C2NC(=O)C(CCS(=O)(=O)c3ccc(C)cc3)=C2C)c1C [Compound 1i, 3,7,9-trimethyl-8-(2-methoxycarbonylethyl)-2-(2-nenenebap-toluenesulfonylethyl)-dipyrrolomethen-1-one]
- Inhibitory rates on tumor cell growth (%) [1]: 28.4%

Molecule: 3,7,9-trimethyl-8-(2-carboxyethyl) -2-(2-p-toluenesulfoethyl)-Dipyrrolidene-1-one [Compound 1f]
- Inhibitory rates on tumor cell growth (%) [1]: 23.5%

Molecule: 9-tert-butyloxycarbonyl-3,7-dimethyl-8-(2-methoxycarbonyl ethyl)-2-(2-p-tolylene sulfonyl group ethyl)-dipyrrolomethen-1-one [Compound 1b]
- Inhibitory rates on tumor cell growth (%) [1]: 57.0%
